Reference: patent US10039806B2, “Methods and compositions for treating antiprogestin-resistant cancers” (Fundación Sales, priority 2011, dated 2018)

Columns and labels:
[1] = system: mammary glands; settings: 50 mg/every other day, three months; cited from earlier work
[2] = system: HI-responsive tumors; test: MPA breast cancer model, HI-responsive tumors in vivo; design: species or system mouse; settings: 1 mg/kg/day
[3] = system: DMBA-induced mammary tumors; settings: cited from earlier work
[4] = system: breast cancer; settings: cited from earlier work
[5] = system: C4-2-HI and 59-HI cells; test: (3H)-thymidine incorporation with 5azadC and RU-486 in 10% FCS; format: cell-based, mouse; settings: 5 μM 5azadC, 100 nM RU-486; P<0.001
Protocol: (3H)-thymidine-uptake was used as an indirect method to evaluate cell proliferation. In brief, cells were seeded into 96-well microplates. After attachment (24 h), the cells were incubated for 24 h with 1% steroid-stripped FCS and then for 48 h with the experimental solutions to be tested in 1% chFCS. Fifty percent of the medium was replaced with fresh medium every 24 h. […] In experiments in which 5azadC was used, the experiments were carried out using proliferating cells (presence of 10% FCS) to guarantee the effect of the demethylating agent. Three different experiments were made using octuplicates, and the means and standard deviations of one representative experiment of the other three are shown.

[6] = system: 59-HI tumors; test: Constitutive-resistant tumor transplanted s.c. in BALB/c mice; format: in vivo, mouse; settings: RU-486 12 mg/kg/day s.c.; 5azadC 1 mg/kg every other day i.p.; 13 days
Protocol: (§1) C4-2-HI, 59-HI, and C4-HIR tumors were transplanted s.c nearby the mammary gland 4th in syngenic mice, and measured every 2 days (length and width). Treatments were initiated when the tumors were palpable. […] The mice were inoculated intraperitoneally (i.p.) with 0.75 mg/kg 5azadC (for C4-2-HI and C4-HIR tumors) or 1 mg/kg 5azadC (for 59-HI tumors) every other day. All the experiments were repeated twice using five mice per group. The animals were euthanized after 13 days of treatment, and tumor samples were removed and frozen at −80° C. or fixed in 10% formaldehyde.
(§2) Cytosolic or nuclear extracts were processed for western blots as described previously. The cells were lysed using Mammalian Protein Extraction Reagent (Pierce, Rockford, Ill.) according the manufacturer's instructions. The western blot membranes were incubated with antibodies against PR (C-19, Santa Cruz Biotech, CA, or Ab-7, Neomarkers, Lab Vision Corp, Fremont, Calif.), PRB (Ab-6, Neomarkers), ERKs (SC-94, Santa Cruz Biotech), E-Cad (610182, BD), Actin (1-19, Santa Cruz Biotech), DnmtI, Dnmt3a and Dnmt3b (H-300, H-295, and H-230, respectively, Santa Cruz Biotech), RARβ (SC-14028, Santa Cruz Biotech), PTEN Ab32199, Abcam), p16 (SC-1207, Santa Cruz Biotech), Rb (SC-50, Santa Cruz Biotech), or glucocorticoid receptors (GRs) (SC-1004, Santa Cruz Biotech) overnight at 4° C., at a concentration of 2 μg/ml in PBST (0.8% NaCl, 0.02% KCl, 0.144% Na2PO4, 0.024% KH2PO4, pH 7.4, 0.1% Tween 20). The band intensities from 3 to 4 different tumor samples indifferent western blots were quantified using Image Quant software.
(§3) Sections of formalin-fixed, paraffin-embedded tissue were processed as previously described and stained with the PRA-specific antibody (C-19) using the avidin-biotin-peroxidase complex technique (Vectastain Elite ABC kit; Vector), as described previously.
(§4) H&E stained sections of livers, spleens, and kidneys from the 5azadC-treated mice (1 mg/kg or 0.75 mg/kg/every other day; n=5) were studied by an expert mouse pathologist. The percentage of tumor stoma versus tumor parenchyma was quantified with the ImageJ software in treated and untreated tumors. The stromal area in relation to the total tumor area was calculated in five representative fields of each sample, using 400× magnification, in three different tumor samples of each group, and the mean±SEM was calculated. Mitotic and apoptotic indices were counted in 10 and 15 high-power fields (HPFs), respectively, of each section, using 1000× magnification, and expressed as the mean±SEM of the percentage of the ratios between the total number of events (mitosis or apoptosis) and the total cell number per HPF. Mitotic figures were identified morphologically by the condensed “hairy” aspect of the chromosomes. Morphological identification of apoptosis was performed according to criteria previously reported, which correlated with the deoxynucleotidyl transferase mediated dUTP-biotin nick end labeling (TUNEL) method.
as §1, with “C4-2-HI” for “C4-2-HI, 59-HI,”, “59-HI” for “C4-HIR”, “every other day” for “(for C4-2-HI”, “s.c. with” for “C4-HIR tumors) or”, “TSA” for “5azadC (for 59-HI tumors)”, “−80 C” for “−80° C.”

[7] = system: C4-2-HI tumors; test: as above; format: in vivo, mouse
Protocol: as §1, §2, §3, §4
as §1, with “C4-2-HI” for “C4-2-HI, 59-HI,”, “59-HI” for “C4-HIR”, “every other day” for “(for C4-2-HI”, “s.c. with” for “C4-HIR tumors) or”, “TSA” for “5azadC (for 59-HI tumors)”, “−80 C” for “−80° C.”

[8] = system: mammary gland; settings: cited from earlier work
[9] = system: C4-HI; settings: concentrations lower than growth inhibitory ones; cited from earlier work
[10] = system: MCF-7 cells; settings: cited from earlier work
[11] = system: 59-2-HI tumor; test: MPA breast cancer model, responsive tumor in vivo; settings: mouse
[12] = system: mammary hyperplasias and carcinomas; settings: pellets of 35 mg; cited from earlier work
[13] = system: HI-responsive tumors; settings: daily doses of 10 mg/kg; cited from earlier work
[14] = system: T47D-YB cells; settings: 100 nM; cited from earlier work
[15] = 28 postmenopausal PR+ patients, 200 mg/day

Question: For CC#C[C@]1(O)CC[C@H]2[C@@H]3CCC4=CC(=O)CCC4=C3[C@@H](c3ccc(N(C)C)cc3)C[C@@]21C [RU-486, mifepristone], which “cell proliferation in mammary gland aspirates” value [1] is on record?
Answer: Inhibition of cell proliferation

Question: What about the tumor growth [2] of the same molecule?
Answer: inhibitory effects

Question: And the tumor development ([3]; 10 mg/kg/day for 3 weeks)?
Answer: delayed tumor development

Question: What about the tumor growth ([3]; 10 mg/kg/day for 3 weeks) of the same molecule?
Answer: inhibited tumor growth

Question: What about the “PR (and ER) expression” value ([3]; rat, in vivo) of the same molecule?
Answer: induced down regulation of the PR

Question: What about the response rate ([4]; 22 patients, TAM-resistant metastases, 200 mg/day, following 3 months of therapy) of the same molecule?
Answer: 18%

Question: And the “side effects: lethargy” value ([4]; 28 postmenopausal PR+ patients, 200 mg/day, more than 8 weeks)?
Answer: 68%

Question: What about the partial response [4, 15] of the same molecule?
Answer: 3 patients

Question: And the “side effects: anorexia” value [4, 15]?
Answer: 39%

Question: And the “side effects: hot flashes” value [4, 15]?
Answer: 50%

Question: And the “side effects: skin rash” value [4, 15]?
Answer: 32%

Question: What about the “side effects: vomiting” value [4, 15] of the same molecule?
Answer: 29%

Question: And the clinical response ([4]; eleven patients with metastases, 200-400 mg daily p.o.)?
Answer: objective response in one patient, six patients showed temporal stabilization, and four patients had progressive disease

Question: And the “cell proliferation, (3H)-thymidine incorporation” value [5]?
Answer: did not alter cell proliferation

Question: What about the tumor growth [6] of the same molecule?
Answer: no significant differences

Question: What about the tumor growth ([7]; RU-486 12 mg/kg/day s.c., 5azadC 0.75 mg/kg every other day i.p., 13 days) of the same molecule?
Answer: no significant differences

Question: And the “tumor growth, MIF alone” value ([7]; tumor only expresses PR-B, FIG. 15)?
Answer: stimulated

Question: And the “PR activation in luminal cells” value ([8]; (5 mg/kg) body weight)?
Answer: induced activation of the PR in luminal cells to an even greater degree than did the pure agonist R5020

Question: And the MPA-induced branching ([8]; BALB/c female mice, 10 mg/kg daily, one week)?
Answer: reverted MPA-induced branching

Question: And the mammary hyperplasia ([8]; PR-A transgenic mice or FGF2-treated mice)?
Answer: unable to revert mammary hyperplasia

Question: What about the “tumor growth at low doses” value [9] of the same molecule?
Answer: stimulated C4-HI growth

Question: And the E2-induced cell proliferation ([10]; 10 nM, 10% steroid-deficient human serum)?
Answer: inhibited E2-induced cell proliferation

Question: And the PR-mediated cell proliferation [10]?
Answer: inhibited PR-mediated cell proliferation

Question: What about the progesterone-induced cell proliferation ([10]; nanomolar concentrations) of the same molecule?
Answer: inhibit progesterone-induced cell proliferation

Question: What about the “tumor regression (histology)” value [11] of the same molecule?
Answer: the tumor regresses

Question: And the “induction of hyperplasia or carcinoma” value [12]?
Answer: prevented the induction of either hyperplasia or carcinoma

Question: And the tumor regression [13]?
Answer: regress

Question: And the cell proliferation [14]?
Answer: increased cell proliferation
